Structures are written as SMILES. Where “and” joins values, the source holds several entries; their conditions need not be identical. Identical values can stand only once.

T/C data for ten molecules are collected here from PubChem BioAssay AID342 (DTP/NCI, 2004).

The assay concerns Swiss mice, Sarcoma 180 sc, mean tumor weight T/C. Put plainly: NCI In Vivo Anticancer Drug Screen. Data for tumor model Sarcoma 180 (subcutaneous) in Swiss mice. To be noted: endpoint: mean tumor weight, higher = larger tumour. As for the experimental part: The antitumor activity of compounds was measured in mice bearing transplantable tumors. Survival or tumor size were measured and the results are expressed as the measurement made in the treated group (T) divided by the measurement made in the vehicle treated control group (C). The tumor model used in this assay is Sarcoma 180 (subcutaneous) in Swiss mice

The mark [1] stands for this setting: dose: 250.0 mg/kg/injection, schedule: Q01DX007 (ip), vehicle: carboxymethylcellulose (CMC).

As for `CCOC(=O)CCCc1ccc(N/N=N/c2nc[nH]c2C(N)=O)cc1`, the T/C (as a rule, the result in the treated group divided by that in the control group, in per cent) runs as follows: (dose: 46.0 mg/kg/injection, schedule: Q01DX007 (ip), vehicle: carboxymethylcellulose (CMC)) 79 % of control and 80 % of control; (dose: 187.0 mg/kg/injection, schedule: Q01DX007 (ip), vehicle: carboxymethylcellulose (CMC)) 46 % of control; under setting [1], 39 % of control.

As for `CCCCN(C)N=Nc1ccc(CCCC(=O)OCC)cc1`, the T/C is, setting by setting: (dose: 125.0 mg/kg/injection, schedule: Q01DX007 (ip), vehicle: saline) 62 % of control; (dose: 200.0 mg/kg/injection, schedule: Q01DX007 (ip), vehicle: saline) 40 % of control.

With `COC1N(C2CC(O)C(CO)O2)C(=O)NC(=O)C1(F)Br` (configuration not stated), the T/C runs as follows: (dose: 22.0 mg/kg/injection, schedule: Q01DX007 (ip), vehicle: saline) 85 % of control and 99 % of control; (dose: 75.0 mg/kg/injection, schedule: Q01DX007 (ip), vehicle: saline) 26 % of control and 43 % of control.

For the molecule `CS(=O)(=O)OCC(O)C(O)COS(C)(=O)=O` (configuration not stated), the T/C reads like this: (dose: 125.0 mg/kg/injection, schedule: Q01DX007 (ip), vehicle: carboxymethylcellulose (CMC)) 74 % of control; under setting [1], 65 % of control; (dose: 500.0 mg/kg/injection, schedule: Q01DX007 (ip), vehicle: carboxymethylcellulose (CMC)) 51 % of control; (dose: 1000.0 mg/kg/injection, schedule: Q01DX007 (ip), vehicle: carboxymethylcellulose (CMC)) 45 % of control.

In the case of `O=c1[nH]cc(N(CCCl)CCCl)c(=O)[nH]1`, the T/C was 104 % of control (dose: 0.2 mg/kg/injection, schedule: Q01DX007 (ip), vehicle: carboxymethylcellulose (CMC)); 51 % of control (dose: 0.31 mg/kg/injection, schedule: Q#A X014 (ip), vehicle: carboxymethylcellulose (CMC)); 65 % of control (dose: 0.32 mg/kg/injection, schedule: Q#A X014 (ip), vehicle: carboxymethylcellulose (CMC)); 88 % of control (dose: 0.4 mg/kg/injection, schedule: Q01DX007 (ip), vehicle: carboxymethylcellulose (CMC)); 67 % of control (dose: 0.4 mg/kg/injection, schedule: Q#A X014 (ip), vehicle: carboxymethylcellulose (CMC)); 67 % of control (dose: 0.53 mg/kg/injection, schedule: Q#A X014 (ip), vehicle: carboxymethylcellulose (CMC)). The T/C is 32 % of control (dose: 0.62 mg/kg/injection, schedule: Q#A X014 (ip), vehicle: carboxymethylcellulose (CMC)); 85 % of control (dose: 0.64 mg/kg/injection, schedule: Q01DX007 (ip), vehicle: carboxymethylcellulose (CMC)); 85 % of control (dose: 0.75 mg/kg/injection, schedule: Q01DX007 (ip), vehicle: saline); 62 % of control and 76 % of control (dose: 0.8 mg/kg/injection, schedule: Q01DX007 (ip), vehicle: carboxymethylcellulose (CMC)); 41 % of control (dose: 0.8 mg/kg/injection, schedule: Q#A X014 (ip), vehicle: carboxymethylcellulose (CMC)); 51 % of control (dose: 1.06 mg/kg/injection, schedule: Q01DX007 (ip), vehicle: carboxymethylcellulose (CMC)). Also, the T/C (dose: 1.5 mg/kg/injection, schedule: Q01DX007 (ip), vehicle: saline) was 60 % of control; the T/C (dose: 1.5 mg/kg/injection, schedule: Q#A X014 (ip), vehicle: alkali diluted with saline) was 21 % of control; the T/C (dose: 1.6 mg/kg/injection, schedule: Q01DX007 (ip), vehicle: carboxymethylcellulose (CMC)) was 21 % of control.

As for `CN1Cc2c(ccc3c2OCO3)[C@@H]2[C@H](O)Cc3cc4c(cc3[C@@H]21)OCO4`, for the setting “dose: 150.0 mg/kg/injection, schedule: Q01DX007 (ip), vehicle: carboxymethylcellulose (CMC)”, the T/C is 93 % of control.

With `CN1CC(=O)N=C1N`, the T/C (dose: 500.0 mg/kg/injection, schedule: Q#A X014 (ip), vehicle: water) was 74 % of control and the T/C (dose: 1500.0 mg/kg/injection, schedule: Q#A X014 (ip), vehicle: water) is 73 % of control.

In the case of `CC(=O)OCC(=O)[C@@]1(O)CC[C@H]2[C@@H]3C=C(C)C4=CC(=O)CC[C@]4(C)[C@H]3[C@@H](O)C[C@@]21C`, the T/C reads like this: (dose: 6.1 mg/kg/injection, schedule: Q01DX007 (sc), vehicle: steriod suspending solution) 67 % of control; (dose: 10.0 mg/kg/injection, schedule: Q#A X014 (ip), vehicle: methylcellulose (MC)) 49 % of control; (dose: 11.8 mg/kg/injection, schedule: Q01DX007 (sc), vehicle: steriod suspending solution) 43 % of control; (dose: 12.5 mg/kg/injection, schedule: Q01DX007 (sc), vehicle: steriod suspending solution) 50 % of control; (dose: 15.0 mg/kg/injection, schedule: Q#A X014 (ip), vehicle: methylcellulose (MC)) 41 % of control and 44 % of control; (dose: 17.7 mg/kg/injection, schedule: Q01DX007 (sc), vehicle: steriod suspending solution) 40 % of control. Further, the T/C (dose: 20.0 mg/kg/injection, schedule: Q01DX007 (sc), vehicle: steriod suspending solution) is 83 % of control; the T/C (dose: 22.5 mg/kg/injection, schedule: Q#A X014 (ip), vehicle: methylcellulose (MC)) was 60 % of control and 64 % of control; the T/C (dose: 25.0 mg/kg/injection, schedule: Q01DX007 (sc), vehicle: steriod suspending solution) is 39 % of control; the T/C (dose: 26.6 mg/kg/injection, schedule: Q01DX007 (sc), vehicle: steriod suspending solution) is 52 % of control; the T/C (dose: 30.0 mg/kg/injection, schedule: Q01DX007 (sc), vehicle: steriod suspending solution) was 55 % of control; the T/C (dose: 33.75 mg/kg/injection, schedule: Q#A X014 (ip), vehicle: methylcellulose (MC)) was 31 % of control and 54 % of control. Moreover, the T/C by setting is: (dose: 40.0 mg/kg/injection, schedule: Q01DX007 (sc), vehicle: steriod suspending solution) 41 % of control; (dose: 45.0 mg/kg/injection, schedule: Q01DX007 (sc), vehicle: steriod suspending solution) 58 % of control and 64 % of control; (dose: 53.0 mg/kg/injection, schedule: Q01DX007 (sc), vehicle: steriod suspending solution) 71 % of control; (dose: 60.0 mg/kg/injection, schedule: Q01DX007 (sc), vehicle: steriod suspending solution) 36 % of control; (dose: 67.5 mg/kg/injection, schedule: Q01DX007 (sc), vehicle: steriod suspending solution) 60 % of control; (dose: 80.0 mg/kg/injection, schedule: Q01DX007 (sc), vehicle: steriod suspending solution) 53 % of control. The T/C is 31 % of control (dose: 90.0 mg/kg/injection, schedule: Q01DX007 (sc), vehicle: steriod suspending solution); 26 % of control (dose: 100.0 mg/kg/injection, schedule: Q01DX007 (sc), vehicle: steriod suspending solution); 51 % of control (dose: 120.0 mg/kg/injection, schedule: Q01DX007 (sc), vehicle: steriod suspending solution); 27 % of control (dose: 135.0 mg/kg/injection, schedule: Q01DX007 (sc), vehicle: steriod suspending solution); 54 % of control (dose: 150.0 mg/kg/injection, schedule: Q01DX007 (sc), vehicle: steriod suspending solution); 32 % of control (dose: 180.0 mg/kg/injection, schedule: Q01DX007 (sc), vehicle: steriod suspending solution). Moreover, under “dose: 202.5 mg/kg/injection, schedule: Q01DX007 (sc), vehicle: steriod suspending solution”, the T/C was 24 % of control.

With `CC(C)C(=O)OCC1OC(n2cnc3c(=S)nc(N)[nH]c32)C(OC(=O)C(C)C)C1OC(=O)C(C)C` (configuration not stated), the T/C (dose: 6.0 mg/kg/injection, schedule: Q01DX007 (ip), vehicle: carboxymethylcellulose (CMC)) is 72 % of control; the T/C (dose: 9.0 mg/kg/injection, schedule: Q01DX007 (ip), vehicle: carboxymethylcellulose (CMC)) is 42 % of control; the T/C (dose: 14.0 mg/kg/injection, schedule: Q01DX007 (ip), vehicle: methylcellulose (MC)) is 42 % of control; the T/C (dose: 21.0 mg/kg/injection, schedule: Q01DX007 (ip), vehicle: carboxymethylcellulose (CMC)) is 5 % of control and 21 % of control; the T/C (dose: 21.0 mg/kg/injection, schedule: Q01DX007 (ip), vehicle: methylcellulose (MC)) is 29 % of control; the T/C (dose: 31.0 mg/kg/injection, schedule: Q01DX007 (ip), vehicle: carboxymethylcellulose (CMC)) was 7 % of control. Further, for the setting “dose: 31.0 mg/kg/injection, schedule: Q01DX007 (ip), vehicle: methylcellulose (MC)”, the T/C is 22 % of control.

Regarding `CC[C@](C)(O)C(=O)O[C@H]1C(=O)O[C@@H]2C[C@H]3C(C)=C[C@H](O)[C@@H](O)[C@]3(C)[C@H]3[C@@]4(O)OC[C@]32[C@@H]1[C@@H](C)[C@H]4O`, the T/C is 60 % of control (dose: 0.5 mg/kg/injection, schedule: Q01DX007 (sc), vehicle: olive oil, sesame oil, peanut oil); 64 % of control (dose: 1.0 mg/kg/injection, schedule: Q01DX007 (sc), vehicle: olive oil, sesame oil, peanut oil); 67 % of control (dose: 2.0 mg/kg/injection, schedule: Q01DX007 (sc), vehicle: olive oil, sesame oil, peanut oil); 77 % of control and 80 % of control (dose: 4.0 mg/kg/injection, schedule: Q01DX007 (sc), vehicle: olive oil, sesame oil, peanut oil); 97 % of control (dose: 6.0 mg/kg/injection, schedule: Q01DX007 (sc), vehicle: olive oil, sesame oil, peanut oil); 93 % of control (dose: 9.0 mg/kg/injection, schedule: Q01DX007 (sc), vehicle: olive oil, sesame oil, peanut oil).
